Assay results as given in PubChem BioAssay (NCI).
Where “and” joins values, the source holds several entries; their conditions need not be identical. Equal values may be shown once.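 The compound was tested at five concentrations on cells cultured in 96-well plates, with a 48-hour exposure period. Here, GI50 denotes the concentration required for 50% inhibition of growth. TGI: concentration producing complete growth inhibition.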

What was measured:
Test in all cases: NCI-60 cell line screen, 48 h
MALME-3M melanoma = tested on: MALME-3M melanoma
NCI/ADR-RES ovarian = tested on: NCI/ADR-RES ovarian
T-47D breast = tested on: T-47D breast
SR leukemia = tested on: SR leukemia
A549 NSCLC = tested on: A549 NSCLC
SF-295 CNS = tested on: SF-295 CNS
NCI-H460 lung = tested on: NCI-H460 lung
UACC-62 melanoma = tested on: UACC-62 melanoma
MOLT-4 leukemia = tested on: MOLT-4 leukemia
M14 melanoma = tested on: M14 melanoma

Row | SMILES | GI50 (MALME-3M melanoma) | TGI (MALME-3M melanoma) | GI50 (NCI/ADR-RES ovarian) | TGI (NCI/ADR-RES ovarian) | GI50 (T-47D breast) | TGI (T-47D breast) | GI50 (SR leukemia) | TGI (SR leukemia) [µM] | GI50 (A549 NSCLC) | TGI (A549 NSCLC) | GI50 (SF-295 CNS) | TGI (SF-295 CNS) | GI50 (NCI-H460 lung) | TGI (NCI-H460 lung) | GI50 (UACC-62 melanoma) | TGI (UACC-62 melanoma) | GI50 (MOLT-4 leukemia) | TGI (MOLT-4 leukemia) | GI50 (M14 melanoma) | TGI (M14 melanoma)
1 | Oc1ccc(Cl)cc1CNc1nc2ccccc2[nH]1 | 13.8 µM | 32.9 µM | 11.5 µM | 37.8 µM | 13.3 µM | 47.9 µM | 13.4 µM | 59.4 | 12.7 µM | 30.2 µM | 12.9 µM | 27.5 µM | 12.5 µM | 26.3 µM | 13.8 µM | 27.6 µM | 10.7 µM | > 100 µM | – | –
2 | Cc1nc(Nc2nc3ccccc3o2)nc(-c2cccc([N+](=O)[O-])c2)c1C(=O)Nc1ccc(F)c(Cl)c1 | 1.92 µM | 5.79 µM | 2.33 µM | 10.5 µM | 1.41 µM | 9.18 µM | 2.6 µM | 15.1 | 1.92 µM | > 100 µM | 1.65 µM | 7.09 µM | 1.43 µM | 17.7 µM | 2.29 µM | > 100 µM | 3.24 µM | 16.9 µM | 3.26 µM | > 100 µM
3 | O=C(Nc1ccc(Cl)c(Cl)c1)OCCN1c2ccccc2Sc2ccccc21 | – | > 10 µM | – | > 10 µM | – | > 10 µM | – | > 10 | – | > 10 µM | – | > 10 µM | – | – | – | > 10 µM | – | > 10 µM | – | > 10 µM
4 | CSc1cccc(NC(=O)OC2CCCCCCCCCCC2)c1 | – | 59.1 µM | – | 64.5 µM | – | > 100 µM | – | > 100 | – | > 100 µM | – | 57.9 µM | – | 35.2 µM | – | 52.7 µM | – | > 100 µM | – | 59.5 µM
5 | [Cl][Cd][Cl] | 5.5 µM and > 34.7 µM and 3.68 µM | > 49.4 µM and 9.41 µM | 120 µM | 277 µM | 9.63 µM | 19.5 µM | 52.3 µM and 6.16 µM | 500 | > 47.8 µM and 33.2 µM | > 66.5 µM and 106 µM | 76.4 µM | 155 µM | 1.44 µM and 4.53 µM and 1.16 µM | 17.6 µM and 24.9 µM | 5.02 µM and 20.2 µM and 7.81 µM | 35.9 µM and 20.8 µM | 31.4 µM and 11.8 µM | > 83.4 µM and 82.9 µM | 43.4 µM and 62.3 µM | > 76.9 µM and 161 µM
6 | C=C1c2c(Cl)ccc(O)c2C(O)=C2C(=O)[C@]3(O)C(O)=C(C(N)=O)C(=O)[C@@H](N(C)C)[C@@H]3[C@@H](O)[C@H]12 | 1.15 µM | 3.45 µM | 2.43 µM | > 50 µM | 1.07 µM | 4.06 µM | 1.58 µM | > 50 | 1.39 µM | 16.6 µM | 1.19 µM | 5 µM | 1.17 µM | 7.54 µM | 0.79 µM | 2.73 µM | 1.89 µM | 12.3 µM | 1.32 µM | 5.79 µM
7 | CN(C)CCN1C(=O)c2cccc3cccc(c23)C1=O | 17.6 µM | > 25 µM | 19.6 µM | > 25 µM | > 25 µM | > 25 µM | 5.18 µM | 18.3 | 12.9 µM | > 25 µM | 11.1 µM | > 25 µM | 8.26 µM | > 25 µM | 18.1 µM | > 25 µM | 6.3 µM | 16.3 µM | > 25 µM | > 25 µM
8 | NCCSCCc1ccccc1 | – | > 100 µM | – | > 100 µM | – | > 100 µM | – | > 100 | – | > 100 µM | – | > 100 µM | – | > 100 µM | – | > 100 µM | – | – | – | > 100 µM
9 | COc1ccc2nc(NC(=O)c3cccnc3Nc3cc(OC)c(OC)c(OC)c3)sc2c1 | 10.1 µM | 24.6 µM | 8.97 µM | 25.7 µM | 5.06 µM | 51.3 µM | 2.31 µM | 16.1 | 7.38 µM | 22 µM | 8.34 µM | 27.1 µM | 7.42 µM | 24 µM | 8.45 µM | 24.6 µM | 24.2 µM | > 100 µM | 10.5 µM | 29.6 µM
10 | COc1ccc(-c2nn(-c3cccc(NC(=O)c4ccc(N5CCOCC5)c(C(F)(F)F)c4)c3)cc2-c2ccncc2)cc1Cl | 5.05 µM | > 50 µM | 3.41 µM | 24.5 µM | 4.5 µM | > 50 µM | 1.62 µM | > 50 | 6.52 µM | > 50 µM | 2.31 µM | > 50 µM | 5.23 µM | > 50 µM | 8.69 µM | > 50 µM | 4.5 µM | > 50 µM | 4.54 µM | 38.1 µM
11 | CC1=C(/C=C/C(C)=C/C=C/C(C)=C/CO)C(C)(C)CCC1 | – | 29.1 µM | – | 43.1 µM | – | 96.2 µM | – | 38.3 | – | 45.5 µM | – | 58.3 µM | – | > 100 µM | – | 45.9 µM | – | 44.4 µM | – | 35.7 µM
12 | O=[N+]([O-])c1ccc(S(=O)(=O)Cc2ccccc2)c2nonc12 | – | 33.4 µM | – | 68 µM | – | 39.8 µM | – | > 100 | – | 83.8 µM | – | > 100 µM | – | 37.8 µM | – | 35.1 µM | – | 83.8 µM | – | 31.2 µM
13 | OCCN1CCN(CC/C=C2\c3ccccc3Sc3ccc(Cl)cc32)CC1 | 1.94 µM | 3.8 µM | 10.3 µM and 8.06 µM | 24.8 µM and 21.8 µM | 2.9 µM and 2.79 µM | 10.4 µM and 11.5 µM | 1.7 µM | 4.59 | 4.79 µM and 4.13 µM | 22.9 µM and 14.3 µM | 1.79 µM and 2.17 µM | 5.07 µM and 5.33 µM | 1.89 µM and 2.19 µM | 3.75 µM and 4.5 µM | 1.73 µM and 1.77 µM | 3.61 µM and 3.44 µM | 1.76 µM and 2.91 µM | 4.03 µM and 8.54 µM | 1.78 µM | 4.27 µM and 3.22 µM
14 | O=C1C=CC(O)C2C1CC13SSC4(CC5C(=O)C=CC(O)C5N4C1=O)C(=O)N23 (centres undefined) | – | 1.22 µM | – | 0.093 µM | – | 2.53 µM | – | 0.0727 | – | 10.8 µM | – | 2.94 µM | – | > 34.2 µM | – | 0.622 µM | – | > 100 µM | – | 0.752 µM
15 | CC(C)CCN[C@@H]1CCc2cc(O)c(N3CC(=O)NS3(=O)=O)c(F)c2C1 | > 100 µM | > 100 µM | > 100 µM | > 100 µM | > 100 µM | > 100 µM | 1.78 µM | > 100 | > 100 µM | > 100 µM | > 100 µM | > 100 µM | > 100 µM | > 100 µM | – | – | > 100 µM | > 100 µM | > 100 µM | > 100 µM
